The values that follow come from ChEMBL document CHEMBL1681635, “II. SAR studies of pyridyl-piperazinyl-piperidine derivatives as CXCR3 chemokine antagonists” (Bioorg Med Chem Lett, 2011).

For data set [1], the target named is T1, C-X-C chemokine receptor type 3 (Homo sapiens, UniProt P49682).
T1 sequence (P49682 whole entry): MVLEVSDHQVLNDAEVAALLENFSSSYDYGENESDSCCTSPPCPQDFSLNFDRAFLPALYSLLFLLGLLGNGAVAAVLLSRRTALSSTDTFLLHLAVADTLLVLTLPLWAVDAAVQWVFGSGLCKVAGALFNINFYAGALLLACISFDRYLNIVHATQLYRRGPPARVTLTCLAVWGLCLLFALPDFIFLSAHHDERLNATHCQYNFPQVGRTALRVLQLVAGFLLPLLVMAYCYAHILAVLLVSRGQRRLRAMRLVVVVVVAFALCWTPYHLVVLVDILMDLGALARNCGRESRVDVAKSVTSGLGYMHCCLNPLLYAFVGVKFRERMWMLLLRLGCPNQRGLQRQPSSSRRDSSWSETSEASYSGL
Put plainly: Antagonist activity at human CXCR3. It counts as functional.

The target of data set [2] is T2, C-X-C chemokine receptor type 3 (Rattus norvegicus, UniProt Q9JII9).
T2 sequence (Q9JII9 whole entry): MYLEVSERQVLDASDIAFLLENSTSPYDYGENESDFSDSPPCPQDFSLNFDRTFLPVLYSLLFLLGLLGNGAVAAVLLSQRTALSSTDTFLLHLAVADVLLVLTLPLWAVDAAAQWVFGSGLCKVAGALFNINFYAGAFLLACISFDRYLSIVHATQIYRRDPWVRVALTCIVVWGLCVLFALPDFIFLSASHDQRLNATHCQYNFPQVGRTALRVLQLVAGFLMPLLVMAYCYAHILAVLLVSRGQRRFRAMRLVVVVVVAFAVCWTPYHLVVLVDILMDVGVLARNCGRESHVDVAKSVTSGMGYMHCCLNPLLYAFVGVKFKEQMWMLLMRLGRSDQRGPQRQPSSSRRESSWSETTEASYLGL
Put plainly: Antagonist activity at rat CXCR3. It counts as functional.

For data set [3], the target named is Cytochrome P450 2D6 (Homo sapiens, UniProt P10635). The data set is described as follows: Inhibition of CYP2D6. In kind it is ADME.
Sequence of Cytochrome P450 2D6 (P10635 whole entry): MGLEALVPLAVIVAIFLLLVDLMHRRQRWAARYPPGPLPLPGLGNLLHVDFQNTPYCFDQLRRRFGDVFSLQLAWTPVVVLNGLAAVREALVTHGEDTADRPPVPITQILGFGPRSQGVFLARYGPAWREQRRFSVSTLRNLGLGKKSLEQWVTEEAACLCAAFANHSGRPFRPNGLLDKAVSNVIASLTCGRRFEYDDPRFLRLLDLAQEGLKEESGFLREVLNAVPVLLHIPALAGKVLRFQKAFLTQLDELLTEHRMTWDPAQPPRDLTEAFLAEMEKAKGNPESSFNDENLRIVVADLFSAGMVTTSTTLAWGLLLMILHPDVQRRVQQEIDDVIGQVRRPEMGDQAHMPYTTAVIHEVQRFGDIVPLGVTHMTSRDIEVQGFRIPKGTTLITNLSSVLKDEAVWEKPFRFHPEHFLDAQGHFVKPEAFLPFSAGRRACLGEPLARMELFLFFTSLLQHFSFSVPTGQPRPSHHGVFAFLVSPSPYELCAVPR
The nature of data set [4]: Clearance in Sprague-Dawley rat at 5 mg/kg, po. In kind it is ADME, organism-based. Also noted: dose 5 mg/kg, route oral. The note with it: in vivo.
In data set [5] the target is T3, C-X-C chemokine receptor type 3 (Mus musculus, UniProt O88410).
T3 sequence (O88410 whole entry): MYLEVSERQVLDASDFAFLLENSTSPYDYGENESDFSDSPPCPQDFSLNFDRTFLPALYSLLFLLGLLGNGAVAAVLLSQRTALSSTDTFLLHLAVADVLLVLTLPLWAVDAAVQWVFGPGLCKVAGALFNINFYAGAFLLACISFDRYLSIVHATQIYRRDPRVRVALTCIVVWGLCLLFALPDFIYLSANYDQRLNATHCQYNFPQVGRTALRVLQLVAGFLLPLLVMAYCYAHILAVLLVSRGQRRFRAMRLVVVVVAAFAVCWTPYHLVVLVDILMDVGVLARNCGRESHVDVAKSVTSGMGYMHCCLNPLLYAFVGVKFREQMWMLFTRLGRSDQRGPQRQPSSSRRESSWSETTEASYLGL
Put plainly: Antagonist activity at mouse CXCR3. It counts as functional.

The test system of data set [6] is Rattus norvegicus. The data set is described as follows: Volume of distribution at steady state in Sprague-Dawley rat at 5 mg/kg, po. In kind it is ADME, organism-based. Also on record: dose 5 mg/kg, route oral. The note with it: in vivo.
Data set [7] is described as follows: Half life in Sprague-Dawley rat at 5 mg/kg, po. In kind it is ADME, organism-based. Also noted: dose 5 mg/kg, route oral. The note with it: in vivo.
Data set [8] has as its target Cytochrome P450 2C19 (Homo sapiens, UniProt P33261). Put plainly: Inhibition of CYP2C19. In kind it is ADME.
Data set [9] in a line: AUC in Sprague-Dawley rat at 10 mg/kg, po after 6 hrs. Also on record: time < 6 hr, dose 10 mg/kg, route oral. It counts as ADME, organism-based. The note with it: plasma.
For data set [10], the target named is Cytochrome P450 3A4 (Homo sapiens, UniProt P08684). The data set is described as follows: Inhibition of CYP3A4. In kind it is ADME.
Sequence of Cytochrome P450 3A4 (P08684 whole entry): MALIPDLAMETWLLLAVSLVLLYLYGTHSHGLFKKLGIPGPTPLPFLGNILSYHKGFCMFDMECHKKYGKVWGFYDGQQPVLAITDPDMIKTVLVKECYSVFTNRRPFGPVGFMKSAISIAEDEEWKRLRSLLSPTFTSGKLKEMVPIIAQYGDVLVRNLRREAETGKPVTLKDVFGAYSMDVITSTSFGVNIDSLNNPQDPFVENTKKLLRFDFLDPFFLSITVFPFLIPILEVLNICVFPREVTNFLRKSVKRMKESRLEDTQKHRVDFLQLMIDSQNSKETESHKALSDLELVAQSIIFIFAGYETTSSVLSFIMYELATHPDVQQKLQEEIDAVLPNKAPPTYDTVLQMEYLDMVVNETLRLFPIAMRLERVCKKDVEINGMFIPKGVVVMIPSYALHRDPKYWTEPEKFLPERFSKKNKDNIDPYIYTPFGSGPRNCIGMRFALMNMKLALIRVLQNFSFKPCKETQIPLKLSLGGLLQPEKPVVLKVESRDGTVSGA
A short description of data set [11]: AUC in Sprague-Dawley rat at 5 mg/kg, po after 24 hrs. It counts as ADME, organism-based. Also noted: time < 24 hr, dose 5 mg/kg, route oral. The note with it: plasma.

Sequence of Cytochrome P450 2C19 (P33261 whole entry): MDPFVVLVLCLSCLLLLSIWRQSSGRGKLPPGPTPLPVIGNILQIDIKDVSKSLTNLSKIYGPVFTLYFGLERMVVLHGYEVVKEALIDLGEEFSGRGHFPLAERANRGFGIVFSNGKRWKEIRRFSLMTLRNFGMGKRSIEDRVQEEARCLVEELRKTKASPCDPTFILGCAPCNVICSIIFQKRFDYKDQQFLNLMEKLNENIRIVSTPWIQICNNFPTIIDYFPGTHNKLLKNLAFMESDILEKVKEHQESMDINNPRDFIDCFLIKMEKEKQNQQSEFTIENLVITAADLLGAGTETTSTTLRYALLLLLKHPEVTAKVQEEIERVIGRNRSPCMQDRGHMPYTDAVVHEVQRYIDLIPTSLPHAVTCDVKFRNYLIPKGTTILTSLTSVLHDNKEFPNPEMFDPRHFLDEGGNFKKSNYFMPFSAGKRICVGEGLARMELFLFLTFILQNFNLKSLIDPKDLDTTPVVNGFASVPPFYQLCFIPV

Consider `C[C@H]1CN(c2ncc(C(=O)NCc3ccc(F)c(F)c3)cc2Cl)CCN1C1CCN(Cc2ccc(Cl)cc2)CC1`, for which the IC50 is 6 nM in data set [1]; 9.9 nM in [2]; above 10000 nM in data set [3]; 6.7 nM in data set [5]; above 10000 nM in data set [8]; above 10000 nM in data set [10]. Moreover, the CL/F in [4] was found to be 1.96 L/h/kg. The compound also displayed a Vdss in data set [6] of 17.6 L/kg. Moreover, in [7], the half-life was 6.8 h. For the same compound, the AUC at 6 h in [9] came to 500 nM·h. The area under the curve (AUC) at 24 h in data set [11] stood at 1100 nM·h.

As a reminder, the IC50 is the concentration that gives 50% inhibition. Low values mean inhibition by little substance, high ones a need for much substance. A word on the CL/F: it is the apparent clearance, not corrected for the fraction that reaches the circulation. Broadly, the half-life is the time in which the quantity being followed falls by half. Low readings indicate fast loss, high ones slow loss. For orientation: AUC means the area under the concentration-time curve, a measure of exposure. Read a low AUC as low exposure.
